Experimental data from PubChem BioAssay AID330 (DTP/NCI, 2004).
Where “and” joins values, the source holds several entries; their conditions need not be identical. Equal values may be shown once. Toxic doses and inconclusive results are not listed.

Test system: P388 leukemia ip, CD2F1 mice, survival T/C
Assay: NCI In Vivo Anticancer Drug Screen. Data for tumor model P388 Leukemia (intraperitoneal) in CD2F1 (CDF1) mice
Settings: endpoint: median survival time, higher = longer survival
Summary of the method: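 Mice carrying the transplanted tumor received test compound or vehicle. Survival was recorded in each group, and the value is the treated-group measurement divided by that of the vehicle-treated control group.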

[1] = dose: 100.0 mg/kg/injection, schedule: Q01DX001 (ip), vehicle: Klucel (hydroxypropylcellulose) (HPC)
[2] = dose: 200.0 mg/kg/injection, schedule: Q01DX001 (ip), vehicle: Klucel (hydroxypropylcellulose) (HPC)
[3] = dose: 400.0 mg/kg/injection, schedule: Q01DX001 (ip), vehicle: Klucel (hydroxypropylcellulose) (HPC)

**Q.** For `Nc1ccc(O)cc1O`, which T/C (dose: 1.56 mg/kg/injection, schedule: Q01DX009 (ip), vehicle: saline) is on record?
**A.** 98 % of control

**Q.** And the T/C (dose: 3.12 mg/kg/injection, schedule: Q01DX009 (ip), vehicle: saline)?
**A.** 109 % of control

**Q.** And the T/C (dose: 6.25 mg/kg/injection, schedule: Q01DX009 (ip), vehicle: saline)?
**A.** 106 % of control

**Q.** What about the T/C (dose: 12.5 mg/kg/injection, schedule: Q01DX009 (ip), vehicle: saline) of the same compound?
**A.** 118 % of control and 119 % of control

**Q.** `O=C(NCc1ccco1)C(=O)N/N=C/c1ccccc1O` was tested. Which T/C (dose: 50.0 mg/kg/injection, schedule: Q01DX009 (ip), vehicle: saline with Tween-80) did it give?
**A.** 89 % of control

**Q.** And the T/C (dose: 100.0 mg/kg/injection, schedule: Q01DX009 (ip), vehicle: saline with Tween-80)?
**A.** 92 % of control

**Q.** What about the T/C (dose: 200.0 mg/kg/injection, schedule: Q01DX009 (ip), vehicle: saline with Tween-80) of the same compound?
**A.** 92 % of control

**Q.** How did the T/C (dose: 60.0 mg/kg/injection, schedule: Q01DX005 (ip), vehicle: saline) turn out when `CCc1nc(N)nc(-c2nc(N)nc(CC)c2C)c1C` was run?
**A.** 106 % of control

**Q.** What about the T/C (dose: 120.0 mg/kg/injection, schedule: Q01DX005 (ip), vehicle: saline) of the same compound?
**A.** 104 % of control

**Q.** And the T/C (dose: 240.0 mg/kg/injection, schedule: Q01DX005 (ip), vehicle: saline)?
**A.** 108 % of control

**Q.** Which results are given for `COC(=O)/C(C(C)=O)=C(\OC(C)=O)c1ccc(OC)c(OC)c1`?
**A.** T/C (dose: 60.0 mg/kg/injection, schedule: Q01DX005 (ip), vehicle: saline with Tween-80): 94 % of control; T/C (dose: 120.0 mg/kg/injection, schedule: Q01DX005 (ip), vehicle: saline with Tween-80): 100 % of control; T/C (dose: 240.0 mg/kg/injection, schedule: Q01DX005 (ip), vehicle: saline with Tween-80): 92 % of control

**Q.** `Cc1ccc(S(=O)(=O)N/N=C/c2ccc(O)c(Cl)c2)cc1` was tested. Which T/C (dose: 12.5 mg/kg/injection, schedule: Q01DX005 (ip), vehicle: distilled water + Tween-80) did it give?
**A.** 102 % of control

**Q.** And the T/C (dose: 25.0 mg/kg/injection, schedule: Q01DX005 (ip), vehicle: distilled water + Tween-80)?
**A.** 102 % of control

**Q.** And the T/C (dose: 50.0 mg/kg/injection, schedule: Q01DX005 (ip), vehicle: distilled water + Tween-80)?
**A.** 98 % of control

**Q.** And the T/C (dose: 100.0 mg/kg/injection, schedule: Q01DX005 (ip), vehicle: distilled water + Tween-80)?
**A.** 100 % of control

**Q.** What about the T/C (dose: 200.0 mg/kg/injection, schedule: Q01DX005 (ip), vehicle: distilled water + Tween-80) of the same compound?
**A.** 99 % of control

**Q.** `CC(C)COP(=O)([O-])OCC[N+](C)(C)C` was tested. Which T/C [1] did it give?
**A.** 104 % of control

**Q.** What about the T/C [2] of the same compound?
**A.** 98 % of control

**Q.** What about the T/C [3] of the same compound?
**A.** 100 % of control

**Q.** Which results are given for `CCC/C(=N\NC(N)=NC)c1ccc(Cl)cc1`?
**A.** T/C (dose: 25.0 mg/kg/injection, schedule: Q04DX002 (ip), vehicle: saline): 102 % of control; T/C (dose: 50.0 mg/kg/injection, schedule: Q04DX002 (ip), vehicle: saline): 93 % of control

**Q.** For `O=C1C=CC(O)C2C1CC13SSC4(CC5C(=O)C=CC(O)C5N4C1=O)C(=O)N23` (stereo unspecified), which T/C (dose: 4.0 mg/kg/injection, schedule: Q01DX009 (ip), vehicle: Klucel (hydroxypropylcellulose) (HPC)) is on record?
**A.** 107 % of control

**Q.** What about the T/C (dose: 8.0 mg/kg/injection, schedule: Q01DX009 (ip), vehicle: Klucel (hydroxypropylcellulose) (HPC)) of the same compound?
**A.** 102 % of control

**Q.** Which results are given for `Cc1c(N=Nc2ccc(Br)cc2)c(-c2ccccc2)nn1C(N)=S`?
**A.** T/C (dose: 50.0 mg/kg/injection, schedule: Q01DX005 (ip), vehicle: Klucel (hydroxypropylcellulose) (HPC)): 102 % of control; T/C (dose: 100.0 mg/kg/injection, schedule: Q01DX005 (ip), vehicle: Klucel (hydroxypropylcellulose) (HPC)): 105 % of control

**Q.** What does the source list for `O=Cc1c(Br)n(-c2ccccc2)c2ccccc12`?
**A.** T/C [1]: 102 % of control; T/C [2]: 100 % of control; T/C [3]: 100 % of control

**Q.** With `COC(=O)c1[nH]cnc1/N=N\N(CCF)CCF` as the compound, how does the T/C (dose: 44.0 mg/kg/injection, schedule: Q04DX003 (ip), vehicle: saline with Tween-80) read?
**A.** 155 % of control

**Q.** What about the T/C (dose: 66.0 mg/kg/injection, schedule: Q04DX003 (ip), vehicle: saline with Tween-80) of the same compound?
**A.** 110 % of control

**Q.** For `CSc1n[nH]c(C(F)(F)F)n1`, which T/C (dose: 30.0 mg/kg/injection, schedule: Q01DX005 (ip), vehicle: Klucel (hydroxypropylcellulose) (HPC)) is on record?
**A.** 105 % of control

**Q.** And the T/C (dose: 60.0 mg/kg/injection, schedule: Q01DX005 (ip), vehicle: Klucel (hydroxypropylcellulose) (HPC))?
**A.** 103 % of control

**Q.** And the T/C (dose: 120.0 mg/kg/injection, schedule: Q01DX005 (ip), vehicle: Klucel (hydroxypropylcellulose) (HPC))?
**A.** 95 % of control

**Q.** What about the T/C (dose: 240.0 mg/kg/injection, schedule: Q01DX005 (ip), vehicle: Klucel (hydroxypropylcellulose) (HPC)) of the same compound?
**A.** 94 % of control

**Q.** Which results are given for `O=C(O)C(=O)O.[NH-]CCC[NH-].[Pt+2]`?
**A.** T/C (dose: 0.63 mg/kg/injection, schedule: Q04DX003 (ip), vehicle: other): 88 % of control; T/C (dose: 2.5 mg/kg/injection, schedule: Q04DX003 (ip), vehicle: other): 153 % of control; T/C (dose: 5.0 mg/kg/injection, schedule: Q04DX003 (ip), vehicle: other): 160 % of control; T/C (dose: 6.25 mg/kg/injection, schedule: Q04DX002 (ip), vehicle: saline): 158 % of control; T/C (dose: 12.5 mg/kg/injection, schedule: Q04DX002 (ip), vehicle: saline): 203 % of control
